Experimental data taken from US4599414A, “Theophylline derivatives” (Eisai Co., Ltd., priority 1979, dated 1986).
Like-named read-outs stand apart in the source and are kept apart here.

System: contractile response to histamine, terminal ileum
Experiment: Antihistaminic action: inhibition of contractile response to histamine (10^-6 M) in isolated terminal ileum
Format: cell-based, guinea-pig
Conditions: for inhibition at 1 µM / inhibition at 0.1 µM / inhibition at 0.01 µM: Cavia porcellus
Description: The terminal ileum was removed from a starved guinea-pig and set up in an organ bath containing Tyrode solution maintained at 26° C. Contractile tension was recorded isometrically under a tension of 1.5 g with a strain-gauge transducer. After obtaining control response to histamine (10^-6 M), antagonists were added to the bath and allowed to remain in contact with the tissue for 3 minutes. Contractile response to histamine in the presence of the antagonists was recorded and the inhibitory rate was calculated according to the following equation: [formula] The tissue was then washed at 10 min intervals with fresh Tyrode solution. Contractile response to histamine was tested after each wash in order to study the duration of action of the antagonists.

[1] = 0.05 h, antagonist 10^-6 M, 3 min contact, before washing, read-out: Inhibitory rate before washing
[2] = 0.05 h, antagonist 10^-7 M, 3 min contact, before washing, read-out: Inhibitory rate before washing
[3] = 0.05 h, antagonist 10^-8 M, 3 min contact, before washing, read-out: Inhibitory rate before washing
[4] = antagonist 10^-6 M, after 1st washing, read-out: Inhibitory rate after 1st washing
[5] = antagonist 10^-6 M, after 2nd washing, read-out: Inhibitory rate after 2nd washing
[6] = antagonist 10^-7 M, after 1st washing, read-out: Inhibitory rate after 1st washing
[7] = antagonist 10^-8 M, after 1st washing, read-out: Inhibitory rate after 1st washing
[8] = antagonist 10^-8 M, after 2nd washing, read-out: Inhibitory rate after 2nd washing
[9] = antagonist 10^-7 M, after 2nd washing, read-out: Inhibitory rate after 2nd washing
[10] = antagonist 10^-7 M, after 3rd washing, read-out: Inhibitory rate after 3rd washing
[11] = antagonist 10^-8 M, after 3rd washing, read-out: Inhibitory rate after 3rd washing
[12] = antagonist 10^-6 M, after 3rd washing, read-out: Inhibitory rate after 3rd washing
[13] = 0.05 h, read-out: Inhibitory rate before washing
[14] = read-out: Inhibitory rate after 1st washing
[15] = read-out: Inhibitory rate after 2nd washing

Row | SMILES | inhibition at 1 µM [1] | inhibition at 0.1 µM [2] | inhibition at 0.01 µM [3] | inhibition at 1 µM [4] | inhibition at 1 µM [5] | inhibition at 0.1 µM [6] | inhibition at 0.01 µM [7] | inhibition at 0.01 µM [8] | inhibition at 0.1 µM [9] | inhibition at 0.1 µM [10] | inhibition at 0.01 µM [11] | Inhibitory rate after 4th washing (antagonist 10^-7 M) | Inhibitory rate after 5th washing (antagonist 10^-7 M) | inhibition at 1 µM [12] | further results
1 | Cn1c(=O)c2c(ncn2CCCN2CCCN(Cc3ccc([N+](=O)[O-])cc3)CC2)n(C)c1=O [(10)] | 100% | 65% | 21% | 46% | 19% | 16% | 12% | 0% | – | – | – | – | – | – | –
2 | CC(CN1c2ccccc2Sc2ccccc21)N(C)C (stereo not drawn) [(1), Promethazine, reference compound] | – | 87% | 37% | – | – | 77% | 44% | – | 56% | 37% | – | – | – | – | –
3 | Cn1c(=O)c2c(ncn2CCCN2CCCN(Cc3ccccc3Cl)CC2)n(C)c1=O [(6)] | 100% | 80% | 14% | 100% | – | 73% | 14% | 14% | 58% | 47% | 6% | 38% | 29% | – | Inhibitory rate after 6th washing (antagonist 10^-7 M): 29%; Inhibitory rate after 7th washing (antagonist 10^-7 M): 20%
4 | Cn1c(=O)c2c(ncn2CCCN2CCCN(Cc3ccc(Cl)cc3)CC2)n(C)c1=O [(5)] | 100% | 100% | 2% | 84% | 65% | 64% | 7% | 4% | 31% | 20% | – | – | 0% | 58% | –
5 | Cn1c(=O)c2c(ncn2CCCN2CCCN(Cc3ccc(Cl)c(Cl)c3)CC2)n(C)c1=O [(8)] | – | 65% | 11% | – | – | 55% | 29% | 19% | 28% | 28% | – | 20% | – | – | –
6 | Cn1c(=O)c2c(ncn2CCCN2CCCN(c3ccccc3)CC2)n(C)c1=O [(4)] | 100% | 64% | 12% | 10% | 0% | 4% | 0% | – | 0% | – | – | – | – | – | –
7 | Cn1c(=O)c2c(ncn2CCCN2CCCN(Cc3ccc(Cl)cc3Cl)CC2)n(C)c1=O [(7)] | 96% | 78% | 6% | 100% | 100% | 59% | 42% | 46% | 52% | 30% | 46% | – | – | 100% | Inhibitory rate after 4th washing (antagonist 10^-6 M): 83%; Inhibitory rate after 5th washing (antagonist 10^-6 M): 87%; Inhibitory rate after 6th washing (antagonist 10^-6 M): 85%; Inhibitory rate after 5th washing (antagonist 10^-8 M): 32%; Inhibitory rate after 6th washing (antagonist 10^-8 M): 18%; Inhibitory rate after 7th washing (antagonist 10^-8 M): 14%
8 | Cn1c(=O)c2c(ncn2CCCN2CCCN(Cc3ccc(F)cc3)CC2)n(C)c1=O [(9)] | 100% | 77% | 10% | 27% | 5% | 20% | 7% | 7% | 13% | 5% | 1% | – | – | 0% | –
9 | Cn1c(=O)c2c(ncn2CCCN2CCCN(Cc3ccccc3)CC2)n(C)c1=O [(11)] | – | 78% | 0% | – | – | 10% | 0% | – | 4% | 0% | – | – | – | – | –
10 | CN1CCCN(C(c2ccccc2)c2ccc(Cl)cc2)CC1 (stereo not drawn) [(3), Homochlorcyclizine, reference compound] | – | – | – | – | – | – | – | – | – | – | – | 39% | 25% | – | inhibition at 0.01 µM [13]: 13%; inhibition at 0.1 µM [13]: 88%; inhibition at 0.01 µM [14]: 46%; inhibition at 0.1 µM [14]: 84%; inhibition at 0.01 µM [15]: 42%; inhibition at 0.1 µM [15]: 63%; inhibition at 0.1 µM (read-out: Inhibitory rate after 3rd washing): 55%; Inhibitory rate after 6th washing (antagonist 10^-7 M): 33%
